Test results as given in patent US5070210A, “Novel ketenimines as intermediates for insecticides” (ICI Americas Inc., priority 1990, dated 1991).

Tests used:
Format in all cases: in vivo
[1] = test system: Cabbage Looper [Trichoplusia ni (Hubner)]; experiment: Cabbage looper insecticidal test; settings: second-instar larvae, percent in solution; 3-5 days
Procedure, shortened: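 Squash cotyledons dipped in test solution (acetone-water 50-50, ≤0.1%), dried, offered to 5 second-instar larvae; mortality after 3-5 days gives LC50.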

[2] = test system: Maize weevil [Sitophilus Zeamais (Motschulsky)]; experiment: Maize weevil insecticidal test; settings: adult weevils, percent in solution; 48 hours
Procedure, shortened: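 LC50, in percent of compound in solution, was derived from dosage-mortality curves after 48 h at about 25 °C. Ten adult weevils per container fed on four corn seeds briefly immersed in acetone:water (50:50) solutions of up to 0.01% and dried.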

[3] = test system: Housefly [Musca domestica]; experiment: Housefly insecticidal test; settings: μg per 25 female flies; mortality after 48 hours
Procedure, shortened: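 Acetone solutions (with 0.01% peanut oil) dried onto dish bottoms, then 25 female flies, 1-2 days old, caged over the residue with sugar water. Mortality scored at 48 hours; LC50 from dosage-mortality curves, in μg per 25 female flies, top level 100 μg.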

[4] = test system: Tobacco Budworm [Heliothis virescens (Fabricius)] eggs; experiment: Tobacco budworm egg test; settings: 2-day old eggs, percent in solution
Procedure, shortened: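 Step 1: dip 2-day old egg patches in acetone test solutions (top concentration 0.1%). Step 2: hold in dishes with rearing medium at 78° F. Step 3: record mortality after control hatch and feeding.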

[5] = test system: Aster Leafhopper [Macrosteles fascifrens (Stal)]; experiment: Aster leafhopper insecticidal test; settings: adults/nymphs, percent in solution; 48 hours
Method: The compounds in Tables 1 and 2 above were tested for insecticidal activity using the following testing procedures. LC50 values, based on the results of these tests and calculated according to dosage-mortality curves, are expressed in Table 3.
Aster Leafhopper [Macrosteles fascifrens (Stal)]
Oat seedlings (Avena sp) were grown in a commercial potting soil in cups. When the plants were approximately 10 cm tall they were thinned to three plants per cup and dipped for 2-3 seconds in 50-50 acetone-water solutions of the test compounds. When the plants had dried, a clear plastic tube was placed over them and the bottom end pressed into the cup. Ten aster leafhopper adults/nymphs were then placed in each tube and the tops of the tubes covered with white organdy cloth. Mortality counts were made after 48 hours. Test concentrations ranged from 0.05% down to that at which 50% mortality occurred. The LC50 values are expressed below in Table 3 under the heading "LH" in terms of the percent of the test compound in the solution.

| SMILES | LC50, CL [1] [%] | LC50, MW [2] [%] | LC50, HF [3] [µg] | LC50, TBW, E (TBW-E) [4] [%] | LC50, LH [5] [%] |
| --- | --- | --- | --- | --- | --- |
| CCC(=Nc1ccc2c(c1)OCO2)OCc1cccc(Oc2ccccc2)c1 [Compound 178] | 0.004 | > 0.01 | 6 | > 0.1 | > 0.05 |
| CC(C)C(=Nc1ccc2c(c1)OCCO2)OCc1cccc(Oc2ccccc2)c1 [Compound 179] | 0.004 | > 0.01 | 13 | > 0.1 | 0.005 |
| CC(C)C(=Nc1ccc(-c2ccccc2)cc1)OCc1cccc(Oc2ccccc2)c1 [Compound 186] | 0.008 | > 0.01 | > 100 | > 0.1 | > 0.05 |
| CC(C)C(=Nc1ccc(Cl)cc1)OCc1cccc(Oc2ccc(F)cc2)c1 [Compound 189] | 0.00027 | > 0.01 | 17 | 0.07 | 0.002 |
| CC(C)C(=Nc1ccc(Cl)c(C(F)(F)F)c1)OCc1cccc(Oc2ccc(F)cc2)c1 [Compound 193] | 0.00075 | > 0.01 | 100 | > 0.1 | 0.001 |
| CC(C)C(=Nc1ccc(F)c(Cl)c1)OCc1cccc(Oc2ccc(F)c(F)c2)c1 [Compound 217] | 0.00006 | 0.0084 | 8 | 0.015 | > 0.05 |
| CC(C)C(=Nc1ccc2c(c1)OCO2)OCc1cccc(Oc2ccc(Cl)cc2)c1 [Compound 240] | 0.0003 | > 0.01 | 14 | 0.04 | > 0.05 |
| CC(C)C(=Nc1cccc(I)c1)OCc1cccc(Oc2ccc(F)cc2)c1 [Compound 255] | 0.00017 | > 0.01 | 16 | 0.075 | 0.0005 |
| CSc1ccc(Oc2cccc(COC(=Nc3ccc(F)c(Cl)c3)C(C)C)c2)cc1 [Compound 256] | 0.007 | > 0.01 | > 100 | 0.1 | > 0.05 |
| CC(C)C(=Nc1ccc(F)cc1)OCc1cccc(Oc2ccc(Br)cc2)c1 [Compound 259] | 0.0003 | > 0.01 | 15 | 0.05 | > 0.05 |
| CC(C)C(=Nc1cccc([N+](=O)[O-])c1)OCc1cccc(Oc2ccc(Cl)cc2)c1 [Compound 271] | 0.0004 | > 0.01 | 27 | 0.1 | > 0.05 |
| CC(C)C(=Nc1ccc(F)c([N+](=O)[O-])c1)OCc1cccc(Oc2ccccc2)c1 [Compound 293] | 0.0045 | > 0.01 | 19 | > 0.1 | > 0.05 |
| CC(C)(F)C(=Nc1ccc(F)c(Cl)c1)OCc1cccc(Oc2ccc(F)cc2F)c1 [Compound 315] | 0.002 | > 0.01 | > 100 | > 0.1 | > 0.05 |
| CC(C)(F)C(=Nc1ccc(F)c(Cl)c1)OCc1cc(Oc2ccc(F)cc2)ccc1F [Compound 316] | 0.0015 | > 0.01 | 100 | > 0.1 | > 0.05 |
| CC(C)C(=Nc1cccc(C(C)(C)C)c1)OCc1cccc(Oc2ccc(F)cc2)c1 [Compound 350] | 0.0045 | > 0.01 | > 100 | > 0.1 | > 0.05 |
| CC(C)C(=Nc1ccc(Br)cc1F)OCc1cccc(Oc2ccc(F)cc2)c1 [Compound 351] | 0.0007 | > 0.01 | 26 | > 0.1 | > 0.05 |
| CSc1ccc(N=C(OCc2ccc(F)c(Oc3ccccc3)c2)C(C)C)cc1 [Compound 353] | > 0.1 | > 0.01 | < 100 | > 0.1 | > 0.05 |

| SMILES | LC50, CL [1] [%] | LC50, MW [2] [%] | LC50, HF [3] [µg] | LC50, TBW, E (TBW-E) [4] [%] | LC50, LH [5] [%] |
| --- | --- | --- | --- | --- | --- |
| Cc1ccc(N=C(OCc2ccc(F)c(Oc3ccccc3)c2)C(C)C)cc1F [Compound 354] | > 0.1 | 0.0068 | < 100 | 0.018 | < 0.05 |
| Cc1ccc(N=C(OCc2ccc(F)c(Oc3ccc(F)cc3)c2)C(C)C)cc1F [Compound 355] | > 0.1 | > 0.01 | < 100 | > 0.1 | < 0.05 |
| Cc1ccc(N=C(OCc2ccc(F)c(Oc3ccccc3)c2)C(C)C)cc1Cl [Compound 356] | > 0.1 | > 0.01 | < 100 | 0.025 | < 0.05 |
| Cc1ccc(N=C(OCc2ccc(F)c(Oc3ccc(F)cc3)c2)C(C)C)cc1Cl [Compound 357] | > 0.1 | 0.01 | < 100 | > 0.1 | < 0.05 |
| Cc1cc(N=C(OCc2ccc(F)c(Oc3ccccc3)c2)C(C)C)ccc1Br [Compound 358] | > 0.1 | > 0.01 | < 100 | > 0.1 | < 0.05 |
| Cc1cc(N=C(OCc2ccc(F)c(Oc3ccc(F)cc3)c2)C(C)C)ccc1Br [Compound 359] | > 0.1 | > 0.01 | < 100 | 0.023 | 0.05 |
| CCc1ccc(N=C(OCc2ccc(F)c(Oc3ccccc3)c2)C(C)C)cc1 [Compound 360] | 0.006 | > 0.01 | < 100 | > 0.1 | < 0.05 |
| CCc1ccc(N=C(OCc2ccc(F)c(Oc3ccc(F)cc3)c2)C(C)C)cc1 [Compound 361] | 0.001 | > 0.01 | < 100 | 0.04 | < 0.05 |
| CSc1cccc(N=C(OCc2ccc(F)c(Oc3ccccc3)c2)C(C)C)c1 [Compound 362] | > 0.1 | > 0.01 | < 100 | > 0.1 | > 0.05 |
| COc1ccc(N=C(OCc2ccc(F)c(Oc3ccc(F)cc3)c2)C(C)C)cc1OC [Compound 363] | > 0.1 | > 0.01 | < 100 | > 0.1 | > 0.05 |
| CC(C)C(=Nc1ccc(Br)c(C(F)(F)F)c1)OCc1ccc(F)c(Oc2ccc(F)cc2)c1 [Compound 364] | 0.00045 | > 0.01 | < 100 | 0.025 | < 0.05 |
| CC(C)C(=Nc1ccc(C(F)(F)F)cc1)OCc1cccc(Oc2ccc(Cl)cc2)c1 [Compound 365] | 0.00025 | > 0.01 | > 100 | 0.038 | < 0.05 |
| CC(C)C(=Nc1ccc2c(c1)OCO2)OCc1ccc(F)c(Oc2ccc(Cl)cc2)c1 [Compound 366] | 0.0007 | > 0.01 | < 100 | 0.012 | 0.05 |
| CC(C)C(=Nc1ccc2c(c1)OCO2)OCc1cccc(Oc2ccc(C(C)(C)C)cc2)c1 [Compound 367] | < 0.1 | > 0.01 | > 100 | > 0.1 | > 0.05 |
| CC(C)C(=Nc1ccc(F)cc1)OCCc1cccc(Oc2ccccc2)c1 [Compound 456] | 0.017 | > 0.01 | > 100 | > 0.05 | > 0.05 |
| CC(C)C(=Nc1ccc2c(c1)OCO2)OCc1cccc(Oc2ccc(Cl)cc2)n1 [Compound 466] | 0.0008 | 0.01 | 13 | > 0.1 | > 0.05 |
